Measurements published in article PMC7317746 (Environmental and Molecular Mutagenesis, 2020).

What was measured:
peripheral blood cells = test: Comet assay, peripheral blood cells; format: in vivo, rat
liver cells = test: Comet assay, liver cells; format: in vivo, rat
[1] = 1-Month Study, 200 mg/kg/day Days 28-29, Day 29, positive control
[2] = 3-Day Study, 200 mg/kg/day Days 2-3, Day 3, positive control

## CCOS(C)(=O)=O [EMS, ethyl methanesulfonate]
Peripheral blood cells; [1]
  Blood % tail intensity mean ± SD: 26.41 ± 4.85 %
Peripheral blood cells; [2]
  Blood % tail intensity mean ± SD: 24.56 ± 1.94 %
Liver cells; [1]
  Liver % tail intensity mean ± SD: 30.79 ± 10.66 %
Liver cells; [2]
  Liver % tail intensity mean ± SD: 28.07 ± 1.64 %
